# According to US20260041094A1, “Compositions Comprising an Antimicrobial Boosting Agent” (Symrise AG, priority 2022, published 2026):
# Key:
# Test in all cases: Minimum Inhibitory Concentration (MIC) test, growth inhibition in 96 well plates via optical density
# Type in all cases: cell-based
# Candida albicans = conditions: lowest concentration with complete growth inhibition, C. albicans; for MIC: Candida albicans, read-out: MIC in ppm Candida albicans
# Protocol: (§1) The Minimum Inhibitory Concentration (MIC) test is a test on growth inhibition. The estimation of MICs is executed in 96 well plates. Through the comparison of bacterial growth with positive and negative controls via optical density (OD), different concentrations of given test substances are evaluated.
# (§2) Bacteria were cultivated under adjusted conditions based on information of the German Collection of Microorganisms and Cell Cultures (DSMZ) and stored in 10% or 50% glycerol prior to use. Afterwards, the following method was applied: Growth medium (according to microorganism) was added to each well of the microplate. Then, test-substances solved in DMSO, and strain specific benchmarks were added. Additionally, […] (water controls only with medium) and solvent controls (DMSO controls only with medium) were performed. Finally, the microorganisms were added in a concentration of 1 to 6×10^6 CFU/ml (CFU=colony forming units). The incubation of the microplates was carried out at appropriate conditions.
# (§3) According to the resulting growth, substance concentrations are labelled either as inhibiting or not and MIC is defined as the lowest concentration where a complete growth inhibition is visible. Experiments at concentration limits (highest concentration labelled as growth and lowest concentration labelled as inhibiting) are performed at least twice.
# (§4) Tested concentrations were adjusted to performance of test substance, but in general: 5,000 ppm steps between 50,000 ppm and 10,000 ppm, and 2500 ppm steps below 10,000 ppm, finishing with 1000 ppm. To enhance resolution of the approach, additional intermediate steps were included in individual cases. […] For ethylhexylglycerin and 1,2-pentanediol, pure substance without DMSO was tested.
# (§5) To verify that the tested combinations act synergistically against microorganisms, corresponding experiments were conducted with Staphylococcus aureus, Candida albicans, Aspergillus brasiliensis, Pseudomonas aeruginosa and Escherichia coli. The synergistic activities of MAA-1 and different antimicrobial compounds in a mixture of 50% and 50% were determined by measuring the MIC of the mixture.
# (§6) In order to calculate the synergy index with MIC values, the Kull equation was used as follows:
# (§7) [formula] • wherein • SI is the Synergy Index according to Kull • MICA is the MIC value for Substance A • MICB is the MIC value for Substance B • MICmixture is the MIC value for the mixture of substances A and B • PA is the proportion of the substance A in the mixture • PB is the proportion of the substance B in the mixture
# (§8) A Synergy Index (SI) with a value lower than 1 indicates a synergistic effect of the mixture that has been tested. Values higher than 1 indicate the absence of a synergistic effect.
# (§9) For mixtures for which no MIC value has been determined, the calculation of an SI is not applicable (marked as n.a. in the following tables).
# Escherichia coli = conditions: lowest concentration with complete growth inhibition, E. coli; for MIC: Escherichia coli, read-out: MIC in ppm Escherichia coli
# Protocol: as §1, §2, §3, §4, §5, §6, §7, §8, §9
# Aspergillus brasiliensis = conditions: lowest concentration with complete growth inhibition, A. brasiliensis; for MIC: Aspergillus brasiliensis, read-out: MIC in ppm Aspergillus brasiliensis
# Protocol: as §1, §2, §3, §4, §5, §6, §7, §8, §9
# Pseudomonas aeruginosa = conditions: lowest concentration with complete growth inhibition, P. aeruginosa; for MIC: Pseudomonas aeruginosa, read-out: MIC in ppm Pseudomonas aeruginosa
# Protocol: as §1, §2, §3, §4, §5, §6, §7, §8, §9
# Staphylococcus aureus = conditions: lowest concentration with complete growth inhibition, S. aureus; for MIC: Staphylococcus aureus, read-out: MIC in ppm Staphylococcus aureus
# Protocol: as §1, §2, §3, §4, §5, §6, §7, §8, §9
MIC in ppm Candida albicans (Candida albicans),MIC in ppm Escherichia coli (Escherichia coli),MIC in ppm Aspergillus brasiliensis (Aspergillus brasiliensis),MIC in ppm Pseudomonas aeruginosa (Pseudomonas aeruginosa),MIC in ppm Staphylococcus aureus (Staphylococcus aureus),MIC (Candida albicans) [mg/mL],MIC (Escherichia coli) [mg/mL],MIC (Aspergillus brasiliensis) [mg/mL],MIC (Pseudomonas aeruginosa) [mg/mL],MIC (Staphylococcus aureus) [mg/mL],Compound
–,–,–,–,–,> 25,15,> 30,> 30,> 25,"CC1(C)CC(NCC(=O)O)=C/C(=N/c2ccccc2)C1 [MAA-20, 2-[(5,5-dimethyl-3-phenylimino-cyclohexen-1-yl)amino]acetic acid]"
–,–,–,–,–,7.5,2.5,20,> 25,2.5,CCOC(=O)CNC1=C/C(=N/c2ccccc2)CC(C)(C)C1 [MAA-1]
–,–,–,–,–,25,> 25,> 30,> 30,25,"COc1ccc(/N=C2\CC(C)(C)CC3=C2SCC(C(=O)O)N3)cc1OC (stereo not drawn) [MAA-13, 8-((3,4-dimethoyxphenyl)imino)-6,6-dimethyl-3,4,5,6,7,8-hexahydro-2-H-benzol[b][1,4]thiazine-3-carboxylic acid]"

# Continued, compound first:
Compound,MIC in ppm Candida albicans (Candida albicans),MIC in ppm Escherichia coli (Escherichia coli),MIC in ppm Aspergillus brasiliensis (Aspergillus brasiliensis),MIC in ppm Pseudomonas aeruginosa (Pseudomonas aeruginosa),MIC in ppm Staphylococcus aureus (Staphylococcus aureus),MIC (Candida albicans) [mg/mL],MIC (Escherichia coli) [mg/mL],MIC (Aspergillus brasiliensis) [mg/mL],MIC (Pseudomonas aeruginosa) [mg/mL],MIC (Staphylococcus aureus) [mg/mL]
CCCCC(CC)COCC(O)CO (stereo not drawn) [Ethylhexylglycerin],"1,000 ppm","2,500 ppm","1,000 ppm","50,000 ppm","1,000 ppm",–,–,–,–,–
"CCCC(O)CO (stereo not drawn) [1,2-Pentanediol]",–,–,–,–,–,12.5,15,17.5,30,35
"CC(=O)c1ccc(O)cc1 [4-Hydroxy-acetophenone, 4-Hydroxyacetophenone]","6,000 ppm","2,500 ppm","2,500 ppm","4,000 ppm","5,000 ppm",–,–,–,–,–
